Reference: ChEMBL document CHEMBL3217567, “Differential activation of soluble guanylate cyclase by a series of aryl disulfanyl dinitrate esters” (Medchemcomm, 2014)

Tests used:
Rattus norvegicus [1] = species: Rattus norvegicus; experiment: (§1) Activation of Sprague-Dawley rat soluble guanylate cyclase after 10 mins in presence of cysteine
Rattus norvegicus [2] = species: Rattus norvegicus; experiment: Activation of Sprague-Dawley rat soluble guanylate cyclase after 10 mins in presence of cysteine relative to GTN
Rattus norvegicus [3] = species: Rattus norvegicus; experiment: Activation of Sprague-Dawley rat soluble guanylate cyclase after 10 mins relative to GTN
[4] = Activation of Sprague-Dawley rat soluble guanylate cyclase after 10 mins
[5] = as §1
[6] = target: Soluble guanylate cyclase (Homo sapiens) (UniProt Q02153+O75343+P33402+Q02108); experiment: Activation of soluble guanylate cyclase (unknown origin) assessed as apparent initial rate of oxidation of oxyhemoglobin in presence of cysteine relative to GTN; format: protein-complex assay

SMILES | Activity (Rattus norvegicus [1]) | Emax (Rattus norvegicus [2]) | Efficacy (Rattus norvegicus [3]) | EC50 [4] | EC50 [5] | Ratio [6]
O=[N+]([O-])OCC(CSSc1ccccc1)O[N+](=O)[O-] (stereo not drawn) | Dose-dependent effect | 201% | – | – | – | –
Cc1ccc(SSCC(CO[N+](=O)[O-])O[N+](=O)[O-])cc1 (stereo not drawn) | Dose-dependent effect | 279% | 114% | 170 µM | – | –
O=[N+]([O-])OCC(CO[N+](=O)[O-])O[N+](=O)[O-] [NITROGLYCERIN] | – | – | – | – | 200 µM | –
COc1ccc(SSCC(CO[N+](=O)[O-])O[N+](=O)[O-])cc1 (stereo not drawn) | Dose-dependent effect | 245% | – | – | – | 2
O=[N+]([O-])OCC(CSSc1ccc(F)cc1)O[N+](=O)[O-] (stereo not drawn) | Dose-dependent effect | 192% | – | – | – | –
O=[N+]([O-])OCC(CSSc1ccc(Cl)cc1)O[N+](=O)[O-] (stereo not drawn) | Dose-dependent effect | 195% | – | – | – | –
O=[N+]([O-])OCC(CSSc1ccc(Br)cc1)O[N+](=O)[O-] (stereo not drawn) | Dose-dependent effect | 218% | 60% | 40 µM | – | –
